Assay results taken from US6436975B1, “Pharmaceutical compositions for ulcer” (Nicox S.A., priority 2000, dated 2002).

Experiments:
[1] = test system: rats; experiment: Anti-ulcer activity, gastric lesions by absolute ethanol; type: in vivo; details: oral, 15 minutes before absolute ethanol (1 ml), evaluated one hour later; cimetidine 50 mg/Kg, composition 70 mg/Kg
[2] = test system: Cells of the human umbilical vein; experiment: Nitric oxide generation by chemiluminiscence, endothelial cells; type: cell-based; details: incubation of 100 μM NO-donor, 5 minutes
Description: (§1) Specifically the test relates to the nitric oxide generation from the NO-donors described in the present invention, among which, for instance nitroglicerin, nicorandyl, nitroprussiate, etc., when they are put in the presence of endothelial cells (method a) or platelets (method b)
The incubation medium (physiologic solvent, for example Tyrode) has been then analyzed to determine the capability to generate NO, by:
1) the nitric oxide disclosure by chemiluminiscence;
As regards the chemiluminiscence analysis, an amount equivalent to 100 ul was injected in the reaction chamber of a chemiluminiscence analyzer containing glacial acetic acid and potassium iodide. Nitrites/nitrates present in the medium under these conditions are converted into NO which is then determined after its reaction with ozone, with consequent light generation. As it usually occurs in the devices measuring the chemiluminiscence, the produced luminiscence is directly proportional to the generated NO levels and can be measured by the suitable photomultiplier unit of a chemiluminiscence analyzer.
The photomultiplier converts the incident light into electric voltage, which is then quantitatively recorded. On the basis of a calibration curve, prepared with scalar nitrite concentrations, it was possible to quantitatively determine the generated NO concentration. […]

[3] = test system: Washed human platelets; experiment: Nitric oxide generation by chemiluminiscence, platelets; type: cell-based; details: incubation of 100 μM NO-donor, 5 minutes
Description: as §1
Washed human platelets, prepared analogously with what described by Radomski et al, (Br.J. Pharmacol. 92, 639-1987), were used. 0.4 ml alicuots were incubated with scalar NO-donor concentrations (1-100 μg/ml) for 5 minutes. The incubation medium (e.g. Tyrode) was then analyzed to determine the capability to generate NO, by determination of nitric oxide bv chemiluminiscence and CGMP, with the modalities described in the previous paragraph, for the analyses carried out on the endothelial cells. As to the determination by chemiluminiscence, also in this case, on the basis of a calibration curve, prepared with scalar nitrite concentrations, it was possible to quantitatively determine the generated NO concentration. For example, after incubation of 100 μM of nicorandyl, an amount equal to 35 μM of NO was generated.

Row | SMILES | Gastric Damage [1] | generated NO concentration [2] | generated NO concentration [3]
1 | CN/C(=N/CCSCc1nc[nH]c1C)NC#N [Cimetidine] | 100% | – | –
2 | O=C(NCCO[N+](=O)[O-])c1cccnc1 [nicorandyl, N-[2-(nitroxy)ethyl]-3-pyridine-carboxamide] | – | about 10 μM | 35 µM
